This series has as its system bifidobacteria. Put plainly: Effect of peroral administration on bifidobacteria of the gut in CBA mice. The class given is in vivo. As to conditions: ten-day peroral course, tetracycline 750 mg/kg. An excerpt: Comparative experimental trials of the effect of peroral administration of antibiotics and an antibacterial composition comprising an antibiotic and lactulose on gut organisms and liver condition in CBA mice.
Models of experimental pathology caused by peroral administration of ampicillin and tetracycline in large doses were used.

For `CN(C)[C@@H]1C(O)=C(C(N)=O)C(=O)[C@@]2(O)C(O)=C3C(=O)c4c(O)cccc4[C@@](C)(O)[C@H]3C[C@@H]12` [tetracycline], the “contents of bifidobacteria in the large intestine” value is recorded as “reduced the contents of bifidobacteria”.

For the origin of these results see patent US20070254023A1, “Perorally Administrable Antimicrobial Composition” (priority 2004, published 2007).
